For one data set, the target named is cathepsin B (Homo sapiens, UniProt P07858). In words: Cleavage of LT-NPs by cathepsin B (RP-HPLC, fluorescence, TEM). The data set is classed as biochemical. Here is the method: The self-assembled nanoparticles (LT-NPs) prepared in Example 1, doxorubicin (DOX), and verteporfin (VPF) were used as samples. 1 mg of each sample was mixed with physiological saline (1 mL). […] The self-assembled nanoparticles (LT-NPs) were mixed with cathepsin B (Cat-B) protease (50 μg/mL). The mixture was allowed to react for 24 h.
In this example, the activation of the self-assembled nanoparticles (LT-NPs) by cathepsin B (Cat-B) was determined. To this end, an experimental sample and a comparative sample were prepared and allowed to react in an incubator at 37° C. Specific cleavages by cathepsin B were evaluated at reaction times of 0, 9, and 24 h by reversed phase high-performance liquid chromatography (RT-HPLC).
Experimental sample (Cat-B): The self-assembled nanoparticles (LT-NPs) (10 μM) prepared in Example 1 were mixed with a 2-(N-morpholine)-ethanesulphonic acid (MES) buffer (200 μL) containing cathepsin B (10 μg).
Comparative sample (Cat-B+inhibitor): The self-assembled nanoparticles (LT-NPs) (10 μM) prepared in Example 1 were mixed with a 2-(N-morpholine)-ethanesulphonic acid (MES) buffer (200 μL) containing cathepsin B (10 μg) and a cathepsin B inhibitor (Z-FA-FMK, 50 μM).

The subject of data set [1] is CT26 cells. As to the kind of experiment: Intracellular behaviour in CT26 cancer cells (confocal microscopy). The format is cell-based. As for the experimental part:
(§1) The following experiment was conducted to evaluate the intracellular behaviors of the self-assembled nanoparticles (LT-NPs). First, 1×10^5 CT26 cells or H9C2 cells were plated in a 35 mm cell culture dish, treated with the self-assembled nanoparticles (LT-NPs, 5 μM) prepared in Example 1, and cultured for 24 h. Thereafter, cells were washed with Dulbecco's PBS (DPBS), fixed in 4% formaldehyde for 10 min, stained with 4′,6-diamidino-2-phenylindole (DAPI) for 5 min, and analyzed with a Leica TCS SP8 confocal microscope (Leica Microsystems GmbH).

In the next data set the test system is H9C2 cells. In words: Intracellular behaviour in H9C2 cardiomyocytes (confocal microscopy). Particulars: H9C2, 5 μM, 24 h. The data set is classed as cell-based. As for the experimental part:
as §1

The nature of data set [2]: ROS generation under 671 nm laser (RNO test). Particulars: 10 μM, 671 nm laser 40 mW 250 sec. As for the experimental part: ROS generation was analyzed by RNO test, where bleaching of N-nitrosodimethylaniline (RNO) by ROS was observed as a decrease in absorbance at 440 nm.
To determine the reactivity of the self-assembled nanoparticles (LT-NPs) to visible light, experimental samples and a comparative sample were prepared as follows. Each sample was mixed with a 10 μM RNO standard solution and irradiated with visible light using a 671 nm laser (SDL-671 series, Shanghai Dream Laser Technology Co., Ltd.) at a power of 40 mW for 250 sec. Absorbances were measured at 440 nm over time while being irradiated with visible light.
Control sample (VPF, control): Verteporfin (VPF) (10 μM) was mixed with physiological saline (1 mL).
Experimental sample 1 (LT-NPs(-Cat-B)): The self-assembled nanoparticles (LT-NPs) (10 μM) prepared in Example 1 were mixed with physiological saline (1 mL).
Experimental sample 2 (LT-NPs(+Cat-B)): The self-assembled nanoparticles (LT-NPs) (10 μM) prepared in Example 1 were mixed with distilled water (200 μL) containing cathepsin B (10 μg) and 1.2 mM histidine. […]
First, the absorbance before laser irradiation was defined as 1 and reduction rates of the absorbance values measured at 440 nm with respect to the absorbance before laser irradiation were calculated. The calculated values were transformed into negative natural logs (−In(y)), which were then multiplied by 100. […]

The nature of data set [3]: Stability of LT-NPs in mouse plasma (size by DLS). The data set is classed as in vitro ADME, BALB/c mice. Conditions: BALB/c mouse plasma, 0-72 h. Here is the method: In this example, the stability of the self-assembled nanoparticles (LT-NPs) in a body fluid was determined. To this end, the self-assembled nanoparticles (LT-NPs) were stored in plasma samples from BALB/c mice for 0, 1, 3, 6, 24, 48, and 72 h and their sizes were measured by dynamic light scattering (DLS).

Data set [4] concerns CT26 cells. As to the kind of experiment: Immunogenic cell death: calreticulin expression. Conditions: CT26, 5 μM, 24 h, +L/−L. The format is cell-based. As for the experimental part: (§2) First, CT26 cells were plated in 35 mm cell culture dishes at a density of 1×10^5 cells/dish and doxorubicin (DOX) (5 μM), verteporfin (VPF) (5 μM) or the self-assembled nanoparticles (LT-NPs) (5 μM) were added to each dish. After 24-h culture, one half was exposed by irradiation with visible light using a 671 nm laser at 40 mW for 250 sec (+L) and the other half was not irradiated with visible light for comparison (−L). The immunogenic cell death of the self-assembled nanoparticles (LT-NPs) was evaluated using the cells and the cell culture media.
Cells were stained with APC-conjugated CRT antibody for 12 h and observed with a confocal fluorescence microscope.

Data set [5] relates to CT26 cells. In words: Immunogenic cell death: extracellular HSP70 and HMGB1 (Western blotting). Conditions: CT26, 5 μM, 24 h, +L/−L. The data set is classed as cell-based. Here is the method:
as §2
Before staining the cells with APC-conjugated CRT antibody, culture media were separated from the cells and the extracellular expression levels of HMGB1 and HSP70 were analyzed by Western blotting.
Each cell culture medium was treated with RIPA buffer (Cell Signaling Technology) at 4° C. for 30 min and the protein amount of the lysate was analyzed using a Pierce BCA protein assay kit (Thermo Fisher Scientific) according to the manufacturer's protocol. After SDS-PAGE, proteins were transferred to a PVDF membrane (Bio-Rad), which was then treated with Tris-buffered saline (TBS-T) containing 5% skim milk and 0.1% Tween-20. The membrane was incubated with primary antibodies at 4° C. overnight. HSP70 and HMGB1 antibodies were used as the primary antibodies. The membrane was washed with TBS-T and incubated with a secondary antibody at room temperature for 1 h. The membrane was washed with TBS-T, treated with EZ-Western Lumi Pico or Femto reagent (DoGen), and analyzed using Fusion-Solo software (Vilber) according to the manufacturer's protocol to determine band intensities.
On the technique in general: In western blotting, separated proteins are transferred to a membrane and probed.

This is an account of results in patent publication US11833204B2, “Visible light-activatable nanoparticles for cancer immunotherapy and use thereof” (KOREA INSTITUTE OF SCIENCE AND TECHNOLOGY, priority 2021, dated 2023).

Regarding `C=CC1=C(C)/C2=C/C3=NC(Cc4[nH]c(c(CCCCC(=O)OC)c4C)CC4N=C(CC1N2)C(C)=C4CCC(=O)N[C@H](Cc1ccccc1)C(=O)N[C@@H](CCCNC(=N)N)C(=O)N[C@H](CCCNC(=N)N)C(=O)NCC(=O)NC1C[C@@H](OC2C[C@](O)(C(=O)CO)Cc4c(O)c5c(c(O)c42)C(=O)c2c(OC)cccc2C5=O)O[C@@H](C)[C@H]1O)[C@@]1(C)C3=CC=C(C(=O)OC)[C@@H]1C(=O)OC` (stereo partly shown) [LT-NPs, VPF-FRRG(SEQ ID NO: 1)-DOX], at cathepsin B (10 μM, cathepsin B 10 μg in MES buffer, 37° C., RP-HPLC and fluorescence), the “cleavage by cathepsin B” value was “cleaved by cathepsin B to release doxorubicin and the photosensitizer”. In addition, the “morphology after reaction with cathepsin B (TEM)” value at cathepsin B (Cat-B 50 μg/mL, 24 h) was “degraded by cathepsin B”. Further, in the data set with CT26 cells [1] (CT26, 5 μM, 24 h), the “intracellular cleavage into doxorubicin and verteporfin” value is recorded as “cleaved specifically to cancer cells”; the presence in cells entry is “observed in both cardiomyocytes (H9C2) and cancer cells (CT26)”. In addition, in the data set on CT26 cells [1] (CT26 treated with cathepsin B inhibitor), the “intracellular degradation with cathepsin B inhibitor” value was “not degraded and remained stable in the cytoplasm”. Moreover, in the data set on H9C2 cells, the presence in cells result is “observed in both cardiomyocytes (H9C2) and cancer cells (CT26)”; the “state in normal cells” value is on record as “in a stable state in normal cells”. Further, in data set [2] (cleaved with cathepsin B), the “amount of ROS generated, relative to verteporfin (VPF)” value worked out at 80%. In addition, in data set [2] (without Cat-B), the “reactivity with visible light (ROS generation), stable state” value was “hardly reactive with visible light”. Besides, the “time-dependent change in size in mouse plasma” value in data set [3] is reported as “stably maintained their morphology in the body fluid”. The calreticulin expression result in the data set on CT26 cells [4] was “Significantly higher”. In the data set with CT26 cells [5], the HMGB-1 release result is listed as “significantly higher” and the HSP70 release result was “significantly higher”.
